According to US9789096B2, “Methods and compositions for selective and targeted cancer therapy” (Board of Regents of the University of Texas System, priority 2013, dated 2017):
Where two headings read alike, the source gives them in different places.

What was measured:
H1819 = assay: Cell viability dose-response, H1819; format: cell-based, human; details: for AC50: NCI-H1819, Table 8
Procedure: (§1) FIG. 6A. […] Cell viability is plotted vs. compound concentration. Compound was added to cells plated at 15% confluence in 96-well plates in RPMI-1640 media supplemented with 5% Fetal Bovine Serum and 2 mM L-Glutamine. After 4 days of incubation, ATP levels were measured using Cell Titer Glo (Promega). Data are presented as the average of 2 replicates ±SEM.
(§2) Selectivity may be measured by the half maximal inhibitory concentration (IC50), which, as used herein, is a measure of the effectiveness of a compound in killing cells. This quantitative measure indicates how much of a particular compound is needed to kill a particular cell population by half (e.g., as indicated by the amount of ATP). […] The IC50 can be determined by constructing a dose-response curve. The lower the IC50, the higher the potency, and the greater the difference between IC50 values for different cell lines (e.g., sensitive lines vs. insensitive lines, and sensitive lines vs. normal lines) the greater the selectivity. […]
(§3) With this information, we synthesized and tested a series of small molecules derived in conception from the oxalamide and chromone scaffold including N-acyl ureas, as shown in Tables 6-8. Each compound was tested in a 12-point dose-response study starting at 50 micromolar and decreasing in 3-fold increments to sub-nanomolar concentrations, in duplicate. Additionally, one or more additional cell line was tested in the same way.

H2122 = assay: Cell viability dose-response, H2122; format: cell-based, human; details: for AC50: NCI-H2122, Table 8
Procedure: as §1, §2, §3

[1] = Homo sapiens, NCI-H1819, 12-point dose-response starting at 50 micromolar, 3-fold increments, in duplicate, read-out: toxicity data, H1819
[2] = Homo sapiens, NCI-H2122, 12-point dose-response starting at 50 micromolar, 3-fold increments, in duplicate, read-out: toxicity data, H2122
[3] = Homo sapiens, NCI-H2122, Table 9, competitor, read-out: IC50 to H2122 cells
[4] = Homo sapiens, 12-point dose-response starting at 50 micromolar
[5] = Homo sapiens, NCI-H1819, read-out: toxicity data, H1819
[6] = Homo sapiens, NCI-H1819, Tables 3 and 4, read-out: IC50 (uM) vs indicated non-small cell lung cancer cell line H1819
[7] = Homo sapiens, NCI-H2122, Tables 3 and 4, read-out: IC50 (uM) vs indicated non-small cell lung cancer cell line H2122
[8] = 12-point dose-response starting at 50 micromolar, 3-fold increments, in duplicate, read-out: toxicity data, H2122

| SMILES | IC50 (H1819; [1]) [µM] | IC50 (H2122; [2]) [µM] | other results |
| --- | --- | --- | --- |
| COc1ccc(CCNC(=O)C(=O)Nc2ccc(C)cc2F)cc1 [SW206883-1-A] | ≥ 49.5 | 0.727 | IC50 (H2122; [3]): 0.5 µM |
| COc1ccc(CCNC(=O)C(=O)N2CCc3ccccc3C2)cc1 [SW208060-1-A] | ≥ 49.5 | ≥ 49.5 |  |
| COc1ccc(CCNC(=O)C(=O)N2CCN(C)CC2)cc1 [SW208048-1-A] | ≥ 49.5 | ≥ 49.5 |  |
| Cc1ccc(Cc2coc3cc(OCc4cnn(-c5ccccc5)c4)ccc3c2=O)cc1 [SW209190-1] |  |  | AC50 (H1819; [4]): 49.5 µM; AC50 (H2122; [4]): 0.092 µM |
| COc1ccc(CCNC(=O)c2nc3ccccc3o2)cc1 [SW208125-1-A] | ≥ 49.5 | 30.4 |  |
| COc1ccc(CCNC(=O)C(=O)Nc2cc(C)cc(F)c2)cc1 [SW206881-1-A] | ≥ 49.5 | 9.9 |  |
| COc1ccc(CCNC(=O)C(=O)Nc2cccc(Br)n2)cc1 [SW208126-1-A] | ≥ 49.5 | ≥ 49.5 |  |
| O=C(NCCc1ccc(F)cc1)C(=O)Nc1ccc(Cl)cc1 [SW208039-1-A] | ≥ 49.5 | 47.5 |  |
| COc1ccc(CCNC(=O)c2nc3ccccc3[nH]2)cc1 [SW208050-1-A] | ≥ 49.5 | ≥ 49.5 |  |
| COc1ccc(CCNC(=O)Nc2ccc(Cl)cc2)cc1 [SW208045-1-A] |  |  | IC50 (H1819; [5]): ≥ 49.5 µM; IC50 (H2122; Homo sapiens, NCI-H2122, read-out: toxicity data, H2122): ≥ 49.5 µM |
| COc1ccc(CCN(C)C(=O)C(=O)Nc2ccc(Cl)cc2)cc1 [SW208153-1-A] | ≥ 49.5 | 10.5 |  |
| COc1ccc(CCNC(=O)C(=O)Nc2cc(F)ccc2C)cc1 [SW206879-1-A] | ≥ 49.5 | ≥ 49.5 |  |
| COc1ccc(CCNC(=O)C(=O)Nc2cc(Cl)ccc2C)cc1 [SW206866-1-A] | ≥ 49.5 | ≥ 49.5 |  |
| COc1ccc(CCNC(=O)C(=O)Nc2cc(F)ccc2F)cc1 [SW206884-1-A] | ≥ 49.5 | ≥ 49.5 |  |
| COc1ccc(CCNC(=O)CNc2ccc(Cl)cc2)cc1 [SW208041-1-A] | ≥ 49.5 | 48.4 |  |
| COc1ccc(CCNC(=O)C(=O)Nc2cccc(OC)c2)cc1 [SW206871-1-A] | ≥ 49.5 | 0.932 |  |
| COc1ccc(CCNC(=O)C(=O)Nc2ccc(Cl)c(F)c2)cc1 [SW206952-1] | ≥ 49.5 | 0.294 |  |
| COc1ccc(CCNC(=O)c2ccc3ccccc3n2)cc1 [SW208052-1-A] | ≥ 49.5 | ≥ 49.5 |  |
| COc1ccc(CCNC(=O)C(=O)NN2CCCCC2)cc1 [SW208129-1-A] | ≥ 49.5 | ≥ 49.5 |  |
| O=c1c(Cc2ccc(F)cc2)coc2cc(OCc3cnn(-c4ccccc4)c3)ccc12 [SW209188-1] |  |  | AC50 (H1819; [4]): 49.5 µM; AC50 (H2122; [4]): 0.086 µM |
| COc1ccc(CCCNC(=O)Nc2ccc(OC)cc2)cc1 [SW208029-1-A] | ≥ 49.5 | ≥ 49.5 |  |
| COc1ccc(CCNC(=O)C(=O)Nc2cc(F)c(Br)c(F)c2)cc1 [SW206872-1-A] | ≥ 49.5 | ≥ 49.5 |  |

| SMILES | IC50 (H1819; [1]) [µM] | IC50 (H2122; [2]) [µM] | other results |
| --- | --- | --- | --- |
| C#CCOc1ccc2nc(NC(=O)c3ccc(C(=O)c4ccc(OC)cc4)cc3)sc2c1 [SW208187] |  |  | IC50 (H1819; [6]): 0.697 µM; IC50 (H2122; [7]): 0.288 µM |
| O=C(NCCc1ccc(O)cc1)C(=O)Nc1ccc(Cl)cc1 [SW208023-1-A] | 7.74 | 0.257 |  |
| COc1ccc(CCNC(=O)C(=O)Nc2cccnc2F)cc1 [SW208133-1-A] | ≥ 49.5 | ≥ 49.5 |  |
| COc1ccc(CCNC(=O)C(=O)NC2CC2)cc1 [SW208031-1-A] | ≥ 49.5 | ≥ 49.5 |  |
| O=C(NCc1ccccc1)NCc1ccccc1 [SW208062-1-A] |  | ≥ 49.5 | IC50 (H1819; [5]): ≥ 49.5 µM |
| COc1ccc(CCNC(=O)C(=O)Nc2cc(F)cc(Cl)c2)cc1 [SW206861-1-A] | 44.2 | ≥ 49.5 |  |
| COc1ccc(CCNC(=O)C(=O)Nc2cc(F)c(F)c(Br)c2)cc1 [SW206876-1-A] | ≥ 49.5 | ≥ 49.5 |  |
| COc1ccc(CCNC(=O)C(=O)Nc2cccc(F)c2)cc1 [SW2068S9-1-A] | ≥ 49.5 | 2.26 |  |
| COc1ccc(CNC(=O)COc2ccc(Cl)cc2)cc1 [SW208040-1-A] | ≥ 49.5 | ≥ 49.5 |  |
| COc1ccc(CCNC(=O)C(=O)Nc2ccc(C(=O)c3ccc(O)cc3)cc2)cc1 [SW208141-1-A] | ≥ 49.5 | ≥ 49.5 |  |
| CCOc1ccc(CCNC(=O)C(=O)Nc2ccc(Cl)cc2)cc1 [SW208061-1-A] | ≥ 49.5 | ≥ 49.5 |  |
| COc1ccc(CCNC(=O)C(=O)Nc2cc(Cl)cc(Cl)c2)cc1 [SW206891-1-A] | 43.8 | ≥ 49.5 |  |
| Cc1ccccc1CCNC(=O)C(=O)Nc1ccc(Cl)cc1 [SW208027-1-A] | ≥ 49.5 | ≥ 49.5 |  |
| COc1ccc(CCNC(=O)c2ccc3ccc(Br)cc3n2)cc1 [SW208057-1-A] | 34.9 | ≥ 49.5 |  |
| O=c1c(Cc2ccccc2F)coc2cc(OCc3cnn(-c4ccccc4)c3)ccc12 [SW209189-1] |  |  | AC50 (H1819; [4]): 49.5 µM; AC50 (H2122; [4]): 0.08 µM |
| COc1ccc(CCNC(=O)C(=O)Nc2ccc(Br)c(Br)c2)cc1 [SW206955-1] | ≥ 49.5 | 0.421 |  |
| COc1ccc2nc(NC(=O)c3ccc([C@@H](N)c4ccccc4)cc3)sc2c1 [SW208109] |  |  | IC50 (H1819; [6]): 7.75 µM; IC50 (H2122; [7]): 0.067 µM |
| COc1ccc(NC(=O)Nc2ccc(OC)cc2)cc1 [SW113878-2-A] | ≥ 49.5 | ≥ 49.5 |  |
| COc1ccc(CNC(=O)NCc2ccccc2)cc1 [SW208047-1-A] | ≥ 49.5 | ≥ 49.5 |  |
| COc1cccc(CCNC(=O)C(=O)Nc2ccc(Cl)cc2)c1 [SW206964-1] | ≥ 49.5 | ≥ 49.5 |  |
| O=c1c(Cc2cccc(C(F)(F)F)c2)coc2cc(OCc3cnn(-c4ccccc4)c3)ccc12 [SW209186-1] |  |  | AC50 (H1819; [4]): 49.5 µM; AC50 (H2122; [4]): 0.047 µM |
| COc1ccc(CCNC(=O)C(=O)Nc2ccc(C(=O)c3ccccc3)cc2)cc1 [SW206966-1] | ≥ 49.5 | 0.085 |  |

| SMILES | IC50 (H1819; [1]) [µM] | IC50 (H2122; [2]) [µM] | other results |
| --- | --- | --- | --- |
| O=c1c(Cc2ccc(Br)cc2)coc2cc(OCc3cnn(-c4ccccc4)c3)ccc12 [SW209191-1] |  |  | AC50 (H1819; [4]): 49.5 µM; AC50 (H2122; [4]): 0.087 µM |
| COc1ccc(CCNC(=O)C(=O)N2Cc3ccccc3C2)cc1 [SW208058-1-A] | ≥ 49.5 | ≥ 49.5 |  |
| COc1ccc(CCNC(=O)C(=O)Nc2ccccc2)cc1 [SW206967-1] | ≥ 49.5 | 0.456 |  |
| C#CCOc1ccc(C(=O)c2ccc(NC(=O)C(=O)NCCc3ccc(OC)cc3)cc2)cc1 [SW208108-1-A] | ≥ 49.5 | 0.028 |  |
| COc1ccc(CCNC(=O)C(=O)NCc2ccc(Cl)cc2)cc1 [SW208025-1-A] | ≥ 49.5 | ≥ 49.5 |  |
| COc1ccc(CCNC(=O)C(=O)Nc2cccc(F)n2)cc1 [SW209136-1-A] | ≥ 49.5 | ≥ 49.5 |  |
| C#CCOc1ccc(CCNC(=O)C(=O)Nc2ccc(C(=O)c3ccccc3)cc2)cc1 [SW207038-2-A] | ≥ 49.5 | 3.17 |  |
| COc1ccc(CCNC(=O)C(=O)NN2CCN(C)CC2)cc1 [SW208131-1-A] | ≥ 49.5 | ≥ 49.5 |  |
| COc1ccc(CCNC(=O)C(=O)Nc2ccc(Br)cn2)cc1 [SW208128-1-A] | ≥ 49.5 | 0.289 |  |
| COc1ccc(CCNC(=O)C(=O)Oc2ccc(Cl)cc2)cc1 [SW208148-1-A] | ≥ 49.5 | 7.17 |  |
| COc1ccc(CCNC(=O)C(=O)Nc2ccc(Cl)c(OC)c2)cc1 [SW206973-1] | 49 | ≥ 49.5 |  |
| COc1ccc(CCNC(=O)C(=O)Nc2cccc(F)c2C)cc1 [SW206882-1-A] | ≥ 49.5 | ≥ 49.5 |  |
| COc1ccc(CCNC(=O)C(=O)Nc2cc(Cl)cc(Cl)c2)cc1 [SW206891-2] |  |  | IC50 (H1819; 12-point dose-response starting at 50 micromolar, 3-fold increments, in duplicate, read-out: toxicity data, H1819): ≥ 49.5 µM; IC50 (H2122; [8]): ≥ 49.5 µM |
| COc1ccc(CCNC(=O)C(=O)Nc2cccc(Br)c2)cc1 [SW027952-2-A] | ≥ 49.5 |  | IC50 (H2122; [8]): 3.1 µM |
| COc1ccc(CCNC(=O)C(=O)NC2CCCCCC2)cc1 [SW208035-1-A] | ≥ 49.5 | ≥ 49.5 |  |
| COc1ccc(CCCNC(=O)C(=O)c2ccccc2)cc1 [SW208152-1-A] | ≥ 49.5 | 15.2 |  |
| COc1ccc(CCNC(=O)C(=O)Nc2cc(OC)ccc2Cl)cc1 [SW206870-1-A] | ≥ 49.5 | ≥ 49.5 |  |
| COc1ccc2nc(NC(=O)c3ccc([C@H](N)c4ccccc4)cc3)sc2c1 [SW208110] |  |  | IC50 (H1819; [6]): 5.97 µM; IC50 (H2122; [7]): 0.012 µM |
| COc1ccc(CCNC(=O)C(=O)NC2CCC2)cc1 [SW208032-1-A] | ≥ 49.5 | ≥ 49.5 |  |
| COc1ccc(CCNC(=O)C(=O)CNc2ccncc2)cc1 [SW208130-1-A] | ≥ 49.5 | ≥ 49.5 |  |
| COc1ccc(CCNC(=O)C(=O)Nc2ccc(Cl)c(C#N)c2)cc1 [SW206959-1] | ≥ 49.5 | 0.398 | IC50 (H2122; [3]): 0.182 µM |
